Results taken from PubChem BioAssay AID248 (DTP/NCI, 2004).
Inconclusive results and toxic doses are left out. No stated cut-off is given here; in the data, active means T/C of 150% or more; inactive means T/C below 125%.

Tested on: L1210 leukemia ip in BDF1 mice, survival T/C
Assay: NCI In Vivo Anticancer Drug Screen. Data for tumor model L1210 Leukemia (intraperitoneal) in B6D2F1 (BDF1) mice
Conditions: endpoint: mean survival time, higher = longer survival
How it was run: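 Survival endpoint. Drug-treated group vs vehicle group, expressed as T divided by C. Tumor passaged by transplantation.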

[1] = dose: 100.0 mg/kg/injection, schedule: Q01DX001 (ip), vehicle: other
[2] = dose: 200.0 mg/kg/injection, schedule: Q01DX001 (ip), vehicle: other
[3] = dose: 400.0 mg/kg/injection, schedule: Q01DX001 (ip), vehicle: other
[4] = dose: 100.0 mg/kg/injection, schedule: Q01DX001 (ip), vehicle: carboxymethylcellulose (CMC)
[5] = dose: 200.0 mg/kg/injection, schedule: Q01DX001 (ip), vehicle: carboxymethylcellulose (CMC)
[6] = dose: 100.0 mg/kg/injection, schedule: Q01DX001 (ip), vehicle: saline
[7] = dose: 100.0 mg/kg/injection, schedule: Q04DX003 (ip), vehicle: Klucel (hydroxypropylcellulose) (HPC)
[8] = dose: 200.0 mg/kg/injection, schedule: Q01DX001 (ip), vehicle: saline
[9] = dose: 200.0 mg/kg/injection, schedule: Q04DX003 (ip), vehicle: Klucel (hydroxypropylcellulose) (HPC)
[10] = dose: 400.0 mg/kg/injection, schedule: Q01DX001 (ip), vehicle: saline
[11] = dose: 400.0 mg/kg/injection, schedule: Q04DX003 (ip), vehicle: Klucel (hydroxypropylcellulose) (HPC)
[12] = dose: 50.0 mg/kg/injection, schedule: Q01DX009 (ip), vehicle: Klucel (hydroxypropylcellulose) (HPC)
[13] = dose: 100.0 mg/kg/injection, schedule: Q01DX009 (ip), vehicle: Klucel (hydroxypropylcellulose) (HPC)
[14] = dose: 200.0 mg/kg/injection, schedule: Q01DX009 (ip), vehicle: Klucel (hydroxypropylcellulose) (HPC)
[15] = dose: 400.0 mg/kg/injection, schedule: Q01DX009 (ip), vehicle: Klucel (hydroxypropylcellulose) (HPC)
[16] = dose: 50.0 mg/kg/injection, schedule: Q01DX001 (ip), vehicle: saline
[17] = dose: 25.0 mg/kg/injection, schedule: Q04DX003 (ip), vehicle: Klucel (hydroxypropylcellulose) (HPC)
[18] = dose: 50.0 mg/kg/injection, schedule: Q04DX003 (ip), vehicle: Klucel (hydroxypropylcellulose) (HPC)
[19] = dose: 50.0 mg/kg/injection, schedule: Q01DX001 (ip), vehicle: carboxymethylcellulose (CMC)
[20] = dose: 100.0 mg/kg/injection, schedule: Q01DX009 (ip), vehicle: saline
[21] = dose: 200.0 mg/kg/injection, schedule: Q01DX009 (ip), vehicle: saline

Measured: T/C

CN(C)c1ccc(N=Cc2ccccc2O)cc1.[Co]
inactive: [1] 90 % of control | [2] 94 % of control | [3] 91 % of control

O=C1c2ccccc2-c2ccc([N+](=O)[O-])c(Br)c21
inactive: [4] 106 % of control | [5] 106 % of control | dose: 400.0 mg/kg/injection, schedule: Q01DX001 (ip), vehicle: carboxymethylcellulose (CMC) 102 % of control

CN1CCCC1CCNc1nc(C(Cl)(Cl)Cl)nc2ccc(Cl)cc12 (stereo not given)
inactive: dose: 25.0 mg/kg/injection, schedule: Q01DX009 (ip), vehicle: saline with Tween-80 106 % of control | dose: 50.0 mg/kg/injection, schedule: Q01DX009 (ip), vehicle: saline with Tween-80 96 % of control | dose: 100.0 mg/kg/injection, schedule: Q01DX009 (ip), vehicle: saline with Tween-80 106 % of control | dose: 100.0 mg/kg/injection, schedule: Q04DX003 (ip), vehicle: saline with Tween-80 88 % of control

O=C1CC(OC(=O)c2ccccc2)(c2ccccc2)OC(c2ccccc2)=C1c1ccccc1 (stereo not given)
inactive: [6] 101 % of control | [7] 97 % of control | [8] 104 % of control | [9] 100 % of control | [10] 96 % of control | [11] 100 % of control

O=C(N/N=C\c1ccc([N+](=O)[O-])cc1)c1ccco1
inactive: [1] 93 % of control | [2] 93 % of control | [3] 93 % of control

COC(=O)C/C(=N\NC(=O)c1ccccc1)C(=O)OC
inactive: [12] 98 % of control | [13] 93 % of control | [14] 98 % of control | [15] 93 % of control

Cc1ccc(NC(=O)NCCCOc2ccc(N3C(N)=NC(N)=NC3(C)C)cc2Cl)cc1S(=O)(=O)F
inactive: [16] 93 % of control | [6] 98 % of control | [8] 97 % of control

Cc1ccc(S(=O)(=O)N/N=C/N(C)C)cc1
inactive: [13] 91 % of control | [7] 102 % of control | [14] 98 % of control | [9] 103 % of control | [15] 96 % of control | [11] 97 % of control

CCCN=Cc1ccccc1O.CCCN=Cc1ccccc1O.[Ni]
inactive: dose: 75.0 mg/kg/injection, schedule: Q01DX001 (ip), vehicle: other 95 % of control | dose: 150.0 mg/kg/injection, schedule: Q01DX001 (ip), vehicle: other 108 % of control

Cc1ccc(O)c(C2CC3CCC2C3)c1 (stereo not given)
inactive: dose: 100.0 mg/kg/injection, schedule: Q04DX003 (ip), vehicle: saline + alcohol 97 % of control | dose: 200.0 mg/kg/injection, schedule: Q04DX003 (ip), vehicle: saline + alcohol 92 % of control | dose: 400.0 mg/kg/injection, schedule: Q04DX003 (ip), vehicle: saline + alcohol 95 % of control

COc1ccc(Cl)cc1NC(=O)Nc1nccs1
inactive: [13] 98 % of control | [7] 101 % of control | [14] 92 % of control | [9] 97 % of control | [11] 95 % of control

C=CCc1cn(C2OC(COC(=O)c3ccc(Cl)cc3)C(OC(=O)c3ccc(Cl)cc3)C2O)c(=O)[nH]c1=O (stereo not given)
inactive: dose: 100.0 mg/kg/injection, schedule: Q01DX005 (ip), vehicle: saline 90 % of control | dose: 200.0 mg/kg/injection, schedule: Q01DX005 (ip), vehicle: saline 91 % of control

N#Cc1cccc(C[P+](c2ccccc2)(c2ccccc2)c2ccccc2)c1
inactive: dose: 12.5 mg/kg/injection, schedule: Q01DX009 (ip), vehicle: Klucel (hydroxypropylcellulose) (HPC) 100 % of control | dose: 12.5 mg/kg/injection, schedule: Q04DX003 (ip), vehicle: Klucel (hydroxypropylcellulose) (HPC) 111 % of control | dose: 25.0 mg/kg/injection, schedule: Q01DX009 (ip), vehicle: Klucel (hydroxypropylcellulose) (HPC) 102 % of control | [17] 111 % of control | [18] 100 % of control

Nc1ccc(S(=O)(=O)NCCO)cc1[N+](=O)[O-]
inactive: dose: 100.0 mg/kg/injection, schedule: Q01DX001 (ip), vehicle: Klucel (hydroxypropylcellulose) (HPC) 103 % of control | dose: 100.0 mg/kg/injection, schedule: Q01DX009 (ip), vehicle: saline sonified 96 % of control | dose: 200.0 mg/kg/injection, schedule: Q01DX001 (ip), vehicle: Klucel (hydroxypropylcellulose) (HPC) 106 % of control | dose: 200.0 mg/kg/injection, schedule: Q01DX009 (ip), vehicle: saline sonified 102 % of control | dose: 400.0 mg/kg/injection, schedule: Q01DX001 (ip), vehicle: Klucel (hydroxypropylcellulose) (HPC) 105 % of control | dose: 400.0 mg/kg/injection, schedule: Q01DX009 (ip), vehicle: saline sonified 93 % of control

O=C(O)c1ccncc1C(=O)O
inactive: [19] 87 % of control | [4] 90 % of control | [5] 87 % of control

C=C1C(=O)OC2/C=C(\C)C(O)C/C=C(/C)CCC12 (stereo not given)
inactive: [17] 96 % of control | [18] 102 % of control | [7] 100 % of control

O=C1OCOC1C1OCOC1=O (stereo not given)
inactive: dose: 55.0 mg/kg/injection, schedule: Q01DX Z (ip), vehicle: methylcellulose (MC) 119 % of control | dose: 83.0 mg/kg/injection, schedule: Q01DX Z (ip), vehicle: methylcellulose (MC) 104 % of control | dose: 125.0 mg/kg/injection, schedule: Q01DX Z (ip), vehicle: methylcellulose (MC) 111 % of control

C[CH2][Sb]([Cl])([CH2]C)([CH2]C)[O][Sb]([Cl])([CH2]C)([CH2]C)[CH2]C
inactive: dose: 10.0 mg/kg/injection, schedule: Q01DX001 (ip), vehicle: saline 109 % of control | dose: 20.0 mg/kg/injection, schedule: Q01DX001 (ip), vehicle: saline 114 % of control | dose: 40.0 mg/kg/injection, schedule: Q01DX001 (ip), vehicle: saline 123 % of control

N#Cc1ccc(C(=O)C=C(C(F)(F)F)C(F)(F)F)cc1
inactive: dose: 6.25 mg/kg/injection, schedule: Q01DX009 (ip), vehicle: other 95 % of control | dose: 12.5 mg/kg/injection, schedule: Q01DX009 (ip), vehicle: other 98 % of control

CSc1ccc(/C=C/c2ccc([N+](=O)[O-])cc2)cc1
inactive: [13] 97 % of control | [7] 91 % of control | [14] 88 % of control | [9] 93 % of control | [15] 92 % of control | [11] 88 % of control

Nc1c(S(=O)(=O)O)ccc2c1C(=O)c1ccccc1C2=O
inactive: [20] 90 % of control | dose: 100.0 mg/kg/injection, schedule: Q04DX003 (ip), vehicle: saline 101 % of control | [21] 97 % of control | dose: 200.0 mg/kg/injection, schedule: Q04DX003 (ip), vehicle: saline 96 % of control | dose: 400.0 mg/kg/injection, schedule: Q01DX009 (ip), vehicle: saline 92 % of control | dose: 400.0 mg/kg/injection, schedule: Q04DX003 (ip), vehicle: saline 91 % of control

CCOC(=O)C1(C)C(=O)CC2c3nc4ccccc4cc3CN2C1=O (stereo not given)
inactive: [13] 109 % of control | [7] 107 % of control | [14] 113 % of control | [9] 100 % of control | [15] 92 % of control | [11] 97 % of control

CCCCCCCCCCCCCCCC[N+]1(Cc2ccccc2)CCOCC1
inactive: [12] 99 % of control | [13] 99 % of control

O=C1NC(CCCl)C(=O)NC1CCCl (stereo not given)
inactive: [19] 107 % of control | [4] 101 % of control | [5] 91 % of control

Cc1ccccc1NP1(=O)OCCCN1Cc1ccc(Cl)cc1 (stereo not given)
inactive: [16] 106 % of control | [6] 102 % of control | [8] 106 % of control | [10] 100 % of control

O=[N+]([O-])c1ccc(C#CS(=O)(=O)c2ccccc2)cc1
inactive: dose: 50.0 mg/kg/injection, schedule: Q01DX009 (ip), vehicle: saline 104 % of control | [20] 96 % of control | [21] 96 % of control

O=C(O)C1C2OC3C(OC(=O)C31)C2Cl (stereo not given)
inactive: dose: 100.0 mg/kg/injection, schedule: Q04DX002 (ip), vehicle: Klucel (hydroxypropylcellulose) (HPC) 95 % of control | dose: 200.0 mg/kg/injection, schedule: Q04DX002 (ip), vehicle: Klucel (hydroxypropylcellulose) (HPC) 92 % of control | dose: 400.0 mg/kg/injection, schedule: Q04DX002 (ip), vehicle: Klucel (hydroxypropylcellulose) (HPC) 92 % of control

O=C1c2ccccc2-c2nc3ncccc3nc21
inactive: [7] 101 % of control | [9] 98 % of control | [11] 98 % of control
